The target of one test is PI3K delta (Homo sapiens (Human), UniProt O00329). The test is described as follows: Assay 1: Fluorescent (HTRF) determination of PI3K enzyme activity, delta. The test is classed as biochemical. The procedure: The homogenous time resolved fluorescence (HTRF) assay allows detection of 3,4,5-triphosphate (PIP3) formed as a result of phosphorylation of phosphotidylinositol 4,5-biphosphate (PIP2) by PI3K isoforms such as α, β, γ or δ.
PI3K isoform activity for α, β, γ or δ was determined using a PI3K human HTRF™ Assay Kit (Millipore, Billerica, Mass.) with modifications. All incubations were carried out at room temperature. […] After the initial incubation, 5 μl/well of 400 μM ATP was added and incubated for an additional 30 minutes. Reaction was terminated by adding 5 μl/well stop solution (Millipore, Billerica, Mass.). Five microliters of detection mix (Millipore, Billerica, Mass.) were then added to each well and was incubated for 6-18 h in the dark. HRTF ratio was measured on a microplate reader (BMG Labtech., Germany) at an excitation wavelength of 337 nm and emission wavelengths of 665 and 620 nm with an integration time of 400 μsec.
(In general: Time-resolved FRET reads energy transfer from a long-lived donor to a nearby acceptor.)

In test [1] the test system is AML patient bone marrow leukemic cells. The test is described as follows: Assay 6-III: Cell proliferation analysis of AML patient bone marrow sample (MTS). The test is classed as cell-based, human. The procedure: 6-III: Cell proliferation analysis of AML patient bone marrow sample using MTS assay: Mononuclear cells were extracted by the Ficoll method and seeded in plates. The cells were treated by different compounds for 48 hrs and 72 hrs before they were analyzed by MTS assay following product instruction. Briefly, 20 μL of the MTS solution was added into each well containing the 100 μL cell suspension, followed by incubation for 4 hours at 37° C., in 95% humidity with presence of 5% CO2. The absorbance of 490 nm (A490) was read using SpectraMAX Plus microplate spectrophotometer.

Test [2] shares this test system. The test is described as follows: Assay 6-I: Flow cytometry analysis of apoptotic induction in AML patient bone marrow leukemic cells. The test is classed as cell-based, human. On the procedure:
6-I: Flow cytometry analysis of apoptotic induction in AML patient bone marrow leukemic cells upon compound treatment using Annexin V and 7-AAD staining: Mononuclear cells were extracted by the Ficoll method and seeded in plates. The cells were treated by different compounds for 48 hrs before they were analyzed by flow cytometry. After washing with PBS, 1×10^5 cells were stained by Annexin V-APC and 7-AAD. Annexin V positive staining measures total apoptotic cells, including early and late apoptotic cells. For Annexin V positive cells, 7-AAD negative signal reflects early apoptotic cells.

Entries after “also recorded” stand apart in the source; their conditions may differ.

Usually IC50 stands for the concentration that inhibits the measured activity by half. Read a high IC50 as weaker potency.

PI3K delta, sequence (O00329 whole entry, canonical isoform): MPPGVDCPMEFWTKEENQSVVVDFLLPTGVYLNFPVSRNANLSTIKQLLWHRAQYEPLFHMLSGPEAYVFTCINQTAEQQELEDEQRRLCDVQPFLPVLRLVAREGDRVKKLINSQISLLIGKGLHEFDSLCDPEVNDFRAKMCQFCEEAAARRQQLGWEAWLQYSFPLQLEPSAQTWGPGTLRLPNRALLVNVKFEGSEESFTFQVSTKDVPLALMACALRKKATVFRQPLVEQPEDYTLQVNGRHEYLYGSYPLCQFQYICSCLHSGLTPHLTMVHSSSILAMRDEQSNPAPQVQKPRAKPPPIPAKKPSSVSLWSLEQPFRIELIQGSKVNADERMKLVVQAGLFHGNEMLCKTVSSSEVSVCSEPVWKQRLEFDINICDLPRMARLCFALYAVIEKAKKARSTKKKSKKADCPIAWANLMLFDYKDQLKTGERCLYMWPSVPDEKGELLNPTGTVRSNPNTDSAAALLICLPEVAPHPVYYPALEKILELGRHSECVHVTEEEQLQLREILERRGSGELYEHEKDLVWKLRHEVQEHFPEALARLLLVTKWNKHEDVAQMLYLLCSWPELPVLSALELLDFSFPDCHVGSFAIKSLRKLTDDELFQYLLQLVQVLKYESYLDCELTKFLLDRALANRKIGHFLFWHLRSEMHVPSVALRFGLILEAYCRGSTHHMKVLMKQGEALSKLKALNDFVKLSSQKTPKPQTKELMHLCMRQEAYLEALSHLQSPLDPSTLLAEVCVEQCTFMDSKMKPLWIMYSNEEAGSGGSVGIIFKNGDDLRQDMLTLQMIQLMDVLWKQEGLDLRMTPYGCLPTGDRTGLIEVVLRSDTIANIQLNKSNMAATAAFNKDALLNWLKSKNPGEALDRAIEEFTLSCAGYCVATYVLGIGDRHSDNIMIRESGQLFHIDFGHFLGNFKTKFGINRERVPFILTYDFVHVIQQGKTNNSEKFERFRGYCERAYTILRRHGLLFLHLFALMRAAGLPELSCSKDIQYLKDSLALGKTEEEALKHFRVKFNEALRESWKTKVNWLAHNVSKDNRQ
PI3K delta, sequence (P27986 whole entry partner, canonical isoform): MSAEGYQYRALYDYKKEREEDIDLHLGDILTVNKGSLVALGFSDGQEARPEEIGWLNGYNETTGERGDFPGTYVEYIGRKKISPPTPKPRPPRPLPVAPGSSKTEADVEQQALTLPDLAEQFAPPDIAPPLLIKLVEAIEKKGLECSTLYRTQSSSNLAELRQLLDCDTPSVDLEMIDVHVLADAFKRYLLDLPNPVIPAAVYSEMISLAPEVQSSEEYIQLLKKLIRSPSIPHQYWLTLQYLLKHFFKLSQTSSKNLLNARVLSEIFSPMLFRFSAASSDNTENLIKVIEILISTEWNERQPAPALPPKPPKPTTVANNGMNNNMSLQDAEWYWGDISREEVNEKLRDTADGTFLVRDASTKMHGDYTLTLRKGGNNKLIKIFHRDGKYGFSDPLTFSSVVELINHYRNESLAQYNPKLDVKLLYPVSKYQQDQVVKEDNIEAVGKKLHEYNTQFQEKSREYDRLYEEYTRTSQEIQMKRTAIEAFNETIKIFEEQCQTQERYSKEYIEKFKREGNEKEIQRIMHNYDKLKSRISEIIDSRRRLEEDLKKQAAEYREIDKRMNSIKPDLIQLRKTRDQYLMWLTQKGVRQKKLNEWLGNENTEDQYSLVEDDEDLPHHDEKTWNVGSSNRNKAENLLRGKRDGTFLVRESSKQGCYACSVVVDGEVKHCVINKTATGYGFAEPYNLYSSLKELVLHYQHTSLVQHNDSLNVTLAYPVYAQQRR

In turn, `CC(C)Oc1ccc(-c2nn([C@@H](C)c3oc4ccccc4c(=O)c3-c3cccc(F)c3)c3ncnc(N)c23)cc1F` [Compound A1, (S)-2-(1-(4-amino-3-(3-fluoro-4-isopropoxyphenyl)-1H-pyrazolo[3,4-d]pyrimidin-1-yl)ethyl)-3-(3-fluorophenyl)-4H-chromen-4-one] gave a half-maximal inhibitory concentration (IC50) against PI3K delta of 0.0138 µM. Besides, in test [1], the “cell viability / proliferation” value is recorded as “dose dependent reduction in proliferation; also recorded: Dose dependent reduction in cell viability”. Moreover, the “number of apoptotic cells” value in test [2] is “concomitant increase in the number of apoptotic cells”. Besides, the “fold increase in apoptosis” value in test [2] (3 μM, 48 hrs) is reported as ~1.5 fold increase in appotosis @ 3 μM and.

The values above are taken from patent US9150579B2, “Selective PI3K delta inhibitors” (Rhizen Pharmaceuticals SA, priority 2012, dated 2015).
